In US20240108595A1, “COMPOSITIONS AND METHODS FOR REVERSING AGE-ASSOCIATED DENDRITIC SPINE LOSS” (UNIVERSITY OF PITTSBURGH - OF THE COMMONWEALTH SYSTEM OF …, priority 2022, published 2024):

Experiments:
[1] = mouse, in vivo, ip, 100 mg/kg
Method: Drug administration and animal studies. […] A modified tolerability score was used to estimate drug tolerability. […] Male and female 15-month-old WT mice were randomly allocated to receive either 25 mg/kg amlexanox (n=9) or equivalent volume vehicle (n=10) for 5 days. Treatment groups were balanced for sex. On day 5, mice were sacrificed, perfused with normal saline, and the right cerebral cortex was isolated and immediately frozen on dry ice for proteomics.

[2] = system: Fibroblast Growth Factor Receptor 2 (FGFR2); test: Cerebral cortex proteomics (LC-MS) after amlexanox treatment of mice; assay type: in vivo, mouse; conditions: 15-month-old WT mice, 25 mg/kg amlexanox for 5 days, right cerebral cortex; unadjusted p value of log2 fold change=0.0012
Method: Drug administration and animal studies. […] Treatment groups were balanced for sex.
Sample Preparation. Tissue homogenate was obtained using a Bead Mill Fast Prep-24 (MP Biomedicals). Tissue was transferred into a Lysing Matrix D tube with 750 μl of homogenization solution (5% SDS with MS-SAFE Protease and Phosphatase Inhibitor) and homogenized at 6 m/s for 40 s. Homogenate was centrifuged at 13.2×g for 10 min, the supernatant was transferred to a microcentrifuge tube and total protein was quantified with BCA.
10 μg of protein from each subject was digested with trypsin at a ratio of 1:20 using S-trap micro columns (Protifi) and desalted using Pierce Peptide Desalting Spin Columns (ThermoFisher Scientific). […]
Peptide Data Analysis. Raw data files were analyzed with Proteome Discoverer (ThermoFisher Scientific) and searched against the mouse SwissProt database using Sequest HT (missed cleavages=2; minimum peptide length=6; precursor mass tolerance=10 ppm; dynamic modifications: Oxidation/+15.995 Da, Acetyl/+42.011 Da, Met-loss/−131.040 Da, Met-loss+Acetyl/[…]; static modifications: Carbamidomethyl/+57.021 Da). […]
Statistical Analysis. […] Proteins with a combined Q-value=0.01 or greater, not quantified in 100% of samples or with CV>0.3 in pooled controls were filtered out. […]
2860 proteins were quantified in all mice. […] Other Fibroblast Growth Factor Receptors were not quantified in our assay.

[3] = system: mouse cerebral cortex proteome; test: Signed Jaccard Index: overlap of amlexanox-induced protein perturbations in mice with effects of proteins on dendritic spines in humans; assay type: in vivo; conditions: amlexanox/control log2 protein abundances in mouse cerebral cortex vs effects of each protein on density of large dendritic spines in human cohort
Method: then the net effect of amlexanox treatment was evaluated on proteins which, in our human data, were associated with age related dendritic spine density reductions. The Signed Jaccard Index (SJI) was calculated to estimate the net overlap of amlexanox-induced protein perturbations in mice with the effects of proteins on dendritic spines in humans. The relative log2-transformed abundances for each protein in amlexanox/control groups were compared with the effects of each protein on the density of large dendritic spines extracted from the mediation analysis from our human cohort (described in Example 1) as follows:
An SJI of 0.013 compares favorably to the mean SJI reported for all drug-disease indication pairs (absolute value=0.004), indicating it is compatible with therapeutic activity. However, the SJI of 0.013 observed was lower in magnitude than the mean SJI reported for drug-disease pairs indicated specifically for CNS disorders (absolute value=0.033).

For CC(C)c1ccc2oc3nc(N)c(C(=O)O)cc3c(=O)c2c1 [amlexanox, Amlexanox], the modified tolerability score [1] was “elevated tolerability scores”, the “relative abundance of FGFR2 (amlexanox/control)” value [2] was 0.69 and the “Signed Jaccard Index (SJI)” value [3] was 0.013.
